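Assay format: 96-well plates, 48-hour exposure. Abbreviation: GI50, concentration required for 50% inhibition of growth.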 Calls of active or inactive are those of the source. Rule as the data show it: active = GI50 up to about 1.1 µM and inactive = higher.
Experiments:
Assay in all cases: growth of human tumour cells (NCI), 48 h
[1] = tested on: 786-0
[2] = tested on: KM12
[3] = tested on: M19-MEL
[4] = tested on: NCI-H522
[5] = tested on: RPMI-8226
[6] = tested on: MOLT-4
[7] = tested on: LXFL 529
[8] = tested on: HL-60
[9] = tested on: SW-620
[10] = tested on: RXF 393
[11] = tested on: KM-20L2
[12] = tested on: SK-MEL-28
[13] = tested on: OVCAR-4
[14] = tested on: OVCAR-5
[15] = tested on: MCF7
[16] = tested on: DU-145
[17] = tested on: NCI/ADR-RES
[18] = tested on: MDA-MB-231
[19] = tested on: BT-549

SMILES	GI50 [1]	GI50 [2]	GI50 [3]	GI50 [4]	GI50 [5]	GI50 [6]	GI50 [7]	GI50 [8]	GI50 [9]	GI50 [10]	GI50 [11]	GI50 [12]	GI50 [13]	GI50 [14]	GI50 [15]	GI50 [16]	GI50 [17]	GI50 [18]	GI50 [19]
O=C1NC2C(CCO)CC=C[C@H]2c2cc3c(cc21)OCO3 (some centres undefined)	> 100 µM (inactive)	> 100 µM (inactive)	> 100 µM (inactive)	> 100 µM (inactive)	> 100 µM (inactive)	> 100 µM (inactive)	> 100 µM (inactive)	> 100 µM (inactive)	> 100 µM (inactive)	> 100 µM (inactive)	> 100 µM (inactive)	> 100 µM (inactive)	–	–	–	–	–	–	–
CCOC(=O)c1cnc2c(ccc3ncccc32)c1OCC	> 100 µM (inactive)	> 100 µM (inactive)	> 100 µM (inactive)	> 100 µM (inactive)	–	71.8 µM (inactive)	> 100 µM (inactive)	> 100 µM (inactive)	> 100 µM (inactive)	82 µM (inactive)	> 100 µM (inactive)	> 100 µM (inactive)	> 100 µM (inactive)	> 100 µM (inactive)	–	–	–	–	–
Cc1cc(=O)n2c(cc3cccccc32)n1	> 100 µM (inactive)	> 100 µM (inactive)	–	> 100 µM (inactive)	> 100 µM (inactive)	> 100 µM (inactive)	> 100 µM (inactive)	> 100 µM (inactive)	> 100 µM (inactive)	> 100 µM (inactive)	> 100 µM (inactive)	> 100 µM (inactive)	> 100 µM (inactive)	> 100 µM (inactive)	–	–	–	–	–
CN(C)c1ccc(C(C#N)NNC(=O)Cc2ccccc2)cc1 (centres undefined)	> 100 µM (inactive)	> 100 µM (inactive)	> 100 µM (inactive)	> 100 µM (inactive)	> 100 µM (inactive)	> 100 µM (inactive)	> 100 µM (inactive)	> 100 µM (inactive)	> 100 µM (inactive)	> 100 µM (inactive)	> 100 µM (inactive)	> 100 µM (inactive)	> 100 µM (inactive)	> 100 µM (inactive)	–	–	–	–	–
CCOC(=O)c1ccc(NC(=O)SCCC(=O)O)cc1	> 100 µM (inactive)	> 100 µM (inactive)	–	–	> 100 µM (inactive)	23 µM (inactive)	69 µM (inactive)	> 100 µM (inactive)	> 100 µM (inactive)	8.04 µM (inactive)	> 100 µM (inactive)	> 100 µM (inactive)	–	> 100 µM (inactive)	–	–	–	–	–
N[C@H]1CCCC[C@@H]1N1C(=O)c2ccccc2C1(O)c1ccc(Cl)cc1 (some centres undefined)	12.6 µM (inactive)	2.11 µM (inactive)	–	13.8 µM (inactive)	2.61 µM (inactive)	5.79 µM (inactive)	–	2.41 µM (inactive)	6.3 µM (inactive)	6.07 µM (inactive)	–	3.78 µM (inactive)	11.2 µM (inactive)	15.1 µM (inactive)	12.3 µM (inactive)	13.2 µM (inactive)	12.7 µM (inactive)	12.9 µM (inactive)	15 µM (inactive)
CCCNC1=C2CC(C)CC(OC)[C@@H](O)[C@H](C)/C=C(\C)C(OC(N)=O)C(OC)/C=C\C=C(/C)C(=O)NC(=CC1=O)C2=O (some centres undefined)	0.443 µM (active)	0.0362 µM (active)	–	0.00678 µM (active)	0.762 µM (active)	0.332 µM (active)	–	0.214 µM (active)	0.0379 µM (active)	1.56 µM (inactive)	–	0.0627 µM (active)	26.6 µM (inactive)	0.0311 µM (active)	0.124 µM (active)	0.111 µM (active)	3.31 µM (inactive)	0.318 µM (active)	12.3 µM (inactive)
Cc1c(C)n(-c2ccccc2)c2nc([S+](C)[O-])nc([S+](C)[O-])c12 (centres undefined)	2.56 µM (inactive)	13.3 µM (inactive)	–	1.89 µM (inactive)	1.66 µM (inactive)	2.33 µM (inactive)	–	1.38 µM (inactive)	1.79 µM (inactive)	2.92 µM (inactive)	–	4.15 µM (inactive)	4.85 µM (inactive)	15.3 µM (inactive)	2.16 µM (inactive)	14.4 µM (inactive)	22.9 µM (inactive)	4.74 µM (inactive)	0.755 µM (active)
O=C(O)c1nnsc1-c1csnn1	> 100 µM (inactive)	> 100 µM (inactive)	–	> 100 µM (inactive)	> 100 µM (inactive)	> 100 µM (inactive)	–	> 100 µM (inactive)	> 100 µM (inactive)	> 100 µM (inactive)	–	> 100 µM (inactive)	> 100 µM (inactive)	> 100 µM (inactive)	> 100 µM (inactive)	> 100 µM (inactive)	> 100 µM (inactive)	> 100 µM (inactive)	> 100 µM (inactive)
Cc1cccc(NC2=NC(=O)C(CC(=O)Nc3ccc(Cl)cc3C)S2)c1 (centres undefined)	> 100 µM (inactive)	> 100 µM (inactive)	> 100 µM (inactive)	> 100 µM (inactive)	> 100 µM (inactive)	> 100 µM (inactive)	> 100 µM (inactive)	> 100 µM (inactive)	> 100 µM (inactive)	> 100 µM (inactive)	> 100 µM (inactive)	> 100 µM (inactive)	> 100 µM (inactive)	> 100 µM (inactive)	–	–	–	–	–
C=CCC1(OCc2ccccc2)C(=O)C(=O)OC1C1COC(C)(C)O1 (centres undefined)	> 100 µM (inactive)	> 100 µM (inactive)	–	> 100 µM (inactive)	> 100 µM (inactive)	> 100 µM (inactive)	–	> 100 µM (inactive)	> 100 µM (inactive)	> 100 µM (inactive)	–	> 100 µM (inactive)	> 100 µM (inactive)	> 100 µM (inactive)	> 100 µM (inactive)	> 100 µM (inactive)	> 100 µM (inactive)	> 100 µM (inactive)	> 100 µM (inactive)
C=C1[C@H](OCC(C)C)[C@@H](OC(=O)C(C)CC)[C@@H](O)C(C)(C)/C=C/[C@H](C)C(=O)[C@@]2(O)C[C@H](C)[C@H](O)[C@@H]2[C@H]1OC(=O)C(C)CC (some centres undefined)	4.1 µM (inactive)	5.41 µM (inactive)	–	8.63 µM (inactive)	0.516 µM (active)	2 µM (inactive)	–	1.05 µM (active)	5.24 µM (inactive)	6.14 µM (inactive)	–	10.2 µM (inactive)	5.45 µM (inactive)	6.37 µM (inactive)	5.92 µM (inactive)	7.83 µM (inactive)	6.82 µM (inactive)	4.01 µM (inactive)	4.63 µM (inactive)
COc1ccc(-c2cc(-c3ccc(Nc4ccnc5cc(C(F)(F)F)ccc45)cc3)[nH]c(=O)c2C#N)cc1	14.1 µM (inactive)	> 100 µM (inactive)	–	> 100 µM (inactive)	> 100 µM (inactive)	> 100 µM (inactive)	–	> 100 µM (inactive)	> 100 µM (inactive)	> 32.7 µM (inactive)	–	> 72.1 µM (inactive)	> 100 µM (inactive)	> 66.5 µM (inactive)	> 88.7 µM (inactive)	> 84.7 µM (inactive)	> 100 µM (inactive)	24.9 µM (inactive)	> 52 µM (inactive)
COc1cccc2c3cccc(OC)c3c3[nH]cnc3c12	1.58 µM (inactive)	2.02 µM (inactive)	–	1.55 µM (inactive)	2.53 µM (inactive)	2.29 µM (inactive)	–	0.785 µM (active)	1.73 µM (inactive)	1.78 µM (inactive)	–	5.24 µM (inactive)	5.45 µM (inactive)	5.37 µM (inactive)	1.58 µM (inactive)	1.31 µM (inactive)	3.09 µM (inactive)	1.87 µM (inactive)	16.1 µM (inactive)
C[C@H]1C(=O)C2=C[C@H]1CCC(=O)[C@]1(C)CCCC(C)(C)[C@H]1C[C@H]2O	17.1 µM (inactive)	19 µM (inactive)	–	0.986 µM (active)	12.5 µM (inactive)	22.1 µM (inactive)	–	16 µM (inactive)	14.9 µM (inactive)	11.5 µM (inactive)	–	40.1 µM (inactive)	48.6 µM (inactive)	25.4 µM (inactive)	13.7 µM (inactive)	28.2 µM (inactive)	21.5 µM (inactive)	5.38 µM (inactive)	28.2 µM (inactive)
O=C(Oc1ccc(OC(Oc2ccccc2)c2ccccc2)cc1)c1ccccc1 (centres undefined)	> 31.6 µM (inactive)	18.7 µM (inactive)	–	49.2 µM (inactive)	13.2 µM (inactive)	16 µM (inactive)	–	16.3 µM (inactive)	> 31.6 µM (inactive)	> 92.3 µM (inactive)	–	17.1 µM (inactive)	15 µM (inactive)	> 74.1 µM (inactive)	29.8 µM (inactive)	> 31.6 µM (inactive)	27.9 µM (inactive)	28 µM (inactive)	26.5 µM (inactive)
Nc1ncn2c(n1)nc1ccccc12	> 100 µM (inactive)	> 100 µM (inactive)	–	> 100 µM (inactive)	> 100 µM (inactive)	> 100 µM (inactive)	–	> 100 µM (inactive)	> 100 µM (inactive)	18.6 µM (inactive)	–	> 100 µM (inactive)	> 100 µM (inactive)	> 100 µM (inactive)	> 100 µM (inactive)	> 100 µM (inactive)	> 100 µM (inactive)	> 100 µM (inactive)	> 100 µM (inactive)
COc1ccc(C(CC(C)=O)c2c(O)c3ccccc3oc2=O)cc1OC (centres undefined)	> 100 µM (inactive)	> 100 µM (inactive)	–	> 100 µM (inactive)	> 100 µM (inactive)	> 100 µM (inactive)	–	> 100 µM (inactive)	> 100 µM (inactive)	> 100 µM (inactive)	–	> 100 µM (inactive)	> 100 µM (inactive)	> 100 µM (inactive)	> 100 µM (inactive)	> 100 µM (inactive)	> 100 µM (inactive)	> 100 µM (inactive)	> 100 µM (inactive)

Reference: ChEMBL document CHEMBL1201862, “PubChem BioAssay data set” (2004)
